# Laboratory results published in ChEMBL document CHEMBL1201862, “PubChem BioAssay data set” (2004).
# Calls of active or inactive are those of the source.
# Legend:
# [1] = biological target: DNA dC->dU-editing enzyme APOBEC-3G (Homo sapiens, UniProt Q9HC16); type: functional;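 note: Dose-response counterscreen measuring inhibition of APOBEC3G DNA deaminase activity, run while confirming APOBEC3A inhibitors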
# [2] = biological target: DNA dC->dU-editing enzyme APOBEC-3A (Homo sapiens, UniProt P31941); experiment: Dose Response confirmation of small molecule APOBEC3A DNA Deaminase Inhibitors via a fluorescence-based single-stranded DNA deaminase assay. [Related pubchem assays (depositor defined):AID493011, AID493024]; type: functional
# [3] = biological target: T1, Coagulation factor XII (Homo sapiens, UniProt P00748); type: functional;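 note: activated factor XIIa alpha cleaving a fluorogenic AMC peptide substrate; inhibitor potency from loss of enzyme activity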
# T1 sequence (P00748 whole entry): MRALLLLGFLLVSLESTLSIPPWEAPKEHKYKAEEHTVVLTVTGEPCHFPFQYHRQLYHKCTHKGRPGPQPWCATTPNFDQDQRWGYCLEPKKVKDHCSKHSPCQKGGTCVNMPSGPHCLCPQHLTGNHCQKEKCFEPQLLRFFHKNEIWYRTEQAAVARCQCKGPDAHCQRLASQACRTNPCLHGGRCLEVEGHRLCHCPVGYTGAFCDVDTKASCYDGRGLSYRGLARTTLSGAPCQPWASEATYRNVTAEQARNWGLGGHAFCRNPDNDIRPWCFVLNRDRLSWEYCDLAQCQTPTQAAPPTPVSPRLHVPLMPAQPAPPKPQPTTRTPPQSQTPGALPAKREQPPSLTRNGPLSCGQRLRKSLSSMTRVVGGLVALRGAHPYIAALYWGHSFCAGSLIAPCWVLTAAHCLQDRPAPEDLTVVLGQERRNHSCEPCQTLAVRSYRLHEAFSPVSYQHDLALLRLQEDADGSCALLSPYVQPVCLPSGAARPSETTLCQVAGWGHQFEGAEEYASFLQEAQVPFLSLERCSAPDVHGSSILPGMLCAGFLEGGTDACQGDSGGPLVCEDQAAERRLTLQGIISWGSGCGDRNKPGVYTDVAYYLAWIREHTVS
# [4] = biological target: T2, Carboxy-terminal domain RNA polymerase II polypeptide A small phosphatase 1 (Homo sapiens, UniProt Q9GZU7); experiment: CTDSP1 inhibitors, concentration-response, biochemical, absorbance readout, ultra-high-throughput screen actives (AID 540297); type: functional
# T2 sequence (Q9GZU7 whole entry): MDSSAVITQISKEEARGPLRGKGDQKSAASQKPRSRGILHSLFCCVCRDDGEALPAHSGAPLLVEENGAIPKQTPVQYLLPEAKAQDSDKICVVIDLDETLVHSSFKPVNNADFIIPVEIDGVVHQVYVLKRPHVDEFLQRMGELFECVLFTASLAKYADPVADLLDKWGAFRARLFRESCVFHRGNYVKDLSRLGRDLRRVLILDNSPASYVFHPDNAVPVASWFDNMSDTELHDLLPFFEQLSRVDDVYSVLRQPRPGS
# [5] = biological target: T3, Short transient receptor potential channel 4 (Mus musculus, UniProt Q9QUQ5); experiment: block of DAMGO-driven TRPC4 calcium entry – cell-based, HEK293 TRPC4/mu-opioid, Fluo-4 calcium, dose response (AID 434942); type: functional;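 note: potency of inhibitors blocking the TRPC4 calcium response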
# T3 sequence (Q9QUQ5 whole entry): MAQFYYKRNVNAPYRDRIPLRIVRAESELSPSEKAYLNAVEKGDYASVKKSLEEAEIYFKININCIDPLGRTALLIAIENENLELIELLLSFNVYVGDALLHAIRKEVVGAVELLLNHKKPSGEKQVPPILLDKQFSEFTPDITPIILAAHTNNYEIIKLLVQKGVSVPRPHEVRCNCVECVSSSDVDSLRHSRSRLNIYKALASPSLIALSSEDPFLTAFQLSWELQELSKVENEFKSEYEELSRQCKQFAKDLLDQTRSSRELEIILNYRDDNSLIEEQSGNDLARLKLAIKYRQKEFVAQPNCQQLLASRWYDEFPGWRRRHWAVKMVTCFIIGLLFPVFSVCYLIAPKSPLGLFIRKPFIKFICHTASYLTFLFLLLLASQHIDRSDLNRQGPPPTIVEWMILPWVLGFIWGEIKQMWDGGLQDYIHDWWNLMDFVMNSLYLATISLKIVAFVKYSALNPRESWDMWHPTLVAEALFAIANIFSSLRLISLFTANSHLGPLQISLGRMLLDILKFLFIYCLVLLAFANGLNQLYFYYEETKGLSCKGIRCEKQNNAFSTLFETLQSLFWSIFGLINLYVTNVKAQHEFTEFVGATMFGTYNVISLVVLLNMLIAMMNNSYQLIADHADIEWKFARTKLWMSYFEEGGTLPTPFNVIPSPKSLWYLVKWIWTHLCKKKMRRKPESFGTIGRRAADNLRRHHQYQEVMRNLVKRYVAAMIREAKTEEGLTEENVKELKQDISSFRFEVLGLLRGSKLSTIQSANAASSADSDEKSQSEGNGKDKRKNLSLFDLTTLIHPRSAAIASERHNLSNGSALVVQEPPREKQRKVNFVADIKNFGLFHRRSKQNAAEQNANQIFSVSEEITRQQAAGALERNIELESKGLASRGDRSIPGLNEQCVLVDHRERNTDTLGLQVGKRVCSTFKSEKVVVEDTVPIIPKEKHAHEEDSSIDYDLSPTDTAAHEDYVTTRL
# [6] = biological target: Dual specificity tyrosine-phosphorylation-regulated kinase 1A (Rattus norvegicus, UniProt Q63470); type: biochemical, Homo sapiens
# [7] = biological target: Large T antigen (Simian virus 40, UniProt P03070); type: functional, Betapolyomavirus macacae;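 note: Confirmatory-stage PubChem screen for compounds that inhibit SV40 T antigen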
# [8] = biological target: T4, Protein RecA (Mycobacterium tuberculosis, UniProt P9WHJ3); experiment: Fluorescence Cell-Free Homogeneous Dose Retest to Identify Inhibitors of RecA-Intein Splicing Activity. [Related pubchem assays (depositor defined):AID2097, AID2223, AID489010, AID492950]; type: functional
# T4 sequence (P9WHJ3 whole entry): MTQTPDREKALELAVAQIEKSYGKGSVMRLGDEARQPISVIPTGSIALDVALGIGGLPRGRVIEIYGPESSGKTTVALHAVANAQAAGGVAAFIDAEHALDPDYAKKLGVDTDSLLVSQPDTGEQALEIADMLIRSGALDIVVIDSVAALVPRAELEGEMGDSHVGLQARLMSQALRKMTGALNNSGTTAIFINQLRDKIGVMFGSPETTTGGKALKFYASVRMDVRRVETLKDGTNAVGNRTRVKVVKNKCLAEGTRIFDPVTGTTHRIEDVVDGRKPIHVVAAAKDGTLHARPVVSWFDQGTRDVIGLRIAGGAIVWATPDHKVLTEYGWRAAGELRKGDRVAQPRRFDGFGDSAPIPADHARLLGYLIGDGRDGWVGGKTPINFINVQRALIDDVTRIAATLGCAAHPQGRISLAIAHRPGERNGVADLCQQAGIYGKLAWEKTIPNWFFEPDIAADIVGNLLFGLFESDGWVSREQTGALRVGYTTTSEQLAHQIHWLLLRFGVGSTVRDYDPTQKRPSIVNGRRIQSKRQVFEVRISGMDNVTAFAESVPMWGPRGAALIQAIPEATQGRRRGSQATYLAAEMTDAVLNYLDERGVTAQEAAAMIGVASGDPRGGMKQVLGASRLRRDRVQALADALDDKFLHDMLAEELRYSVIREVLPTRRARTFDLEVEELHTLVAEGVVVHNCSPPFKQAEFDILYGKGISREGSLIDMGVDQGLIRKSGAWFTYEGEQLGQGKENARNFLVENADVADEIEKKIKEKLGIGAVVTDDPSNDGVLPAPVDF
# [9] = biological target: T5, Replicative DNA helicase DnaB (Mycobacterium tuberculosis, UniProt P9WMR3); experiment: DnaB intein splicing inhibitors, dose response, biochemical, cell-free fluorescence (AID 449749); type: functional
# T5 sequence (P9WMR3 whole entry): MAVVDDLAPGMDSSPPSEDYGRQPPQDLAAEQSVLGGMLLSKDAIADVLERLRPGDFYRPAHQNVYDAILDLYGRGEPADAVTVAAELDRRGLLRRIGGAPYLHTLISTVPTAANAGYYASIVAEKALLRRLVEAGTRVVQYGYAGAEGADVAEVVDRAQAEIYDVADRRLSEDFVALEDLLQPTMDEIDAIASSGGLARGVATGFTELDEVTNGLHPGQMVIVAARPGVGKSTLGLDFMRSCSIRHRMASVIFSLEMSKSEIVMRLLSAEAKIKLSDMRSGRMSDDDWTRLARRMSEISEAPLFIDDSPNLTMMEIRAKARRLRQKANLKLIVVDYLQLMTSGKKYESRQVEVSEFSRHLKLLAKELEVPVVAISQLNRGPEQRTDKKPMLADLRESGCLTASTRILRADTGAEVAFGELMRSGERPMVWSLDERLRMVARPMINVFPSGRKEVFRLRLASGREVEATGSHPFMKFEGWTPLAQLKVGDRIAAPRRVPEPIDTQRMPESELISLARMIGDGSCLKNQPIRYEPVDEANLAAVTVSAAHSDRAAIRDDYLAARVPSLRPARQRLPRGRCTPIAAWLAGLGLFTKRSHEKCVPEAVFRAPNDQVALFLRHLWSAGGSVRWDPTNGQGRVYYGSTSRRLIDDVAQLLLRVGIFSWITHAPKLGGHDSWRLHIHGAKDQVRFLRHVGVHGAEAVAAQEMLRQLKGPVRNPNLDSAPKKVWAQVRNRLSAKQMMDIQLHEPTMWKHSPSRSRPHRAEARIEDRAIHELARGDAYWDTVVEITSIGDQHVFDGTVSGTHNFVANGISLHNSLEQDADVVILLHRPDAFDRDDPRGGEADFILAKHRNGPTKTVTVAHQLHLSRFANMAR
# [10] = system: Vero; experiment: cells; type: functional; conditions: Chlorocebus sabaeus
# [11] = microbe, parasite or virus in culture; type: functional; conditions: Mycobacterium tuberculosis
# [12] = biological target: T3, Short transient receptor potential channel 4; experiment: calcium entry via TRPC4 opening agents – cell-based, HEK293 TRPC4/mu-opioid, Fluo-4 calcium, dose response (AID 434937); type: functional
# [13] = viability of PTEN-deleted HCT116 cells – cell-based, HCT116 PTEN knockout, dose response (AID 1047); type: functional;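 note: HCT116 colon tumor cells with PTEN knocked out; cells exposed to compound for 60 hours before readout; potency for loss of cell viability measured by luminescence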
# [14] = non-specific 3'UTR reporter inhibition in Clone20-Shn3RL – cell-based, Renilla luciferase, cherry-picked, counter-screen for Shn3 inhibitor project, dose response (AID 624133); type: functional
# [15] = biological target: Genome polyprotein (dengue virus type 2, UniProt P29990); experiment: flavivirus cap methylation enzyme inhibition – biochemical, confirmation dose response, primary screen (AID 588689); type: functional
# [16] = reduction of Shn3 3'UTR-driven luciferase in osteoblasts – cell-based, Clone20 osteoblasts, firefly luciferase, cherry-picked, dose response (AID 624132); type: functional;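 note: firefly luciferase luminescence from reporter carrying the Shn3 3'UTR in osteoblasts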
# [17] = viability of HCT116 lacking mutant beta-catenin – cell-based, human colon tumor, dose response (AID 1045); type: functional;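 note: HCT116 colon tumor cells with beta catenin knocked out; cells exposed to compound for 60 hours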
# [18] = biological target: T6, High affinity choline transporter 1 (Homo sapiens, UniProt Q9GZV3); experiment: human choline transporter blockers, potency – cell-based, 5-point CRC, membrane potential dye, dose response (AID 504840); type: functional
# T6 sequence (Q9GZV3 whole entry): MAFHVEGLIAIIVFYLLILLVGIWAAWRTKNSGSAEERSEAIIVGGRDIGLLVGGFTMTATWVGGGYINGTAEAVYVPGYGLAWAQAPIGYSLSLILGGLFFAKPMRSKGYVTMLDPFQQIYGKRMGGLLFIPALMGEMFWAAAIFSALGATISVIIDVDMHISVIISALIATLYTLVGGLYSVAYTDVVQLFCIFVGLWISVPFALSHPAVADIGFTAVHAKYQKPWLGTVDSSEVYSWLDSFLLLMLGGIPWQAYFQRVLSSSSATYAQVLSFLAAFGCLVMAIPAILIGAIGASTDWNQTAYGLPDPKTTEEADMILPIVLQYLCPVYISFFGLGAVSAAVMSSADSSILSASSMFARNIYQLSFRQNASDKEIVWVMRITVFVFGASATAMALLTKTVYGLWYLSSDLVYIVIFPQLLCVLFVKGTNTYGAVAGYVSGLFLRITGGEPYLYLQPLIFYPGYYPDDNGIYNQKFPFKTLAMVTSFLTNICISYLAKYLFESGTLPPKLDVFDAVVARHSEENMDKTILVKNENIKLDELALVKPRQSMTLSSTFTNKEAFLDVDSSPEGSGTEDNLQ
# [19] = biological target: Polyadenylate-binding protein 1 (Homo sapiens, UniProt P11940); experiment: blockers of PABP interaction with poly(A) – biochemical, fluorescence polarization, […] (AID 2014)
# [20] = biological target: Eukaryotic translation initiation factor 4H (Homo sapiens, UniProt Q15056); experiment: eIF4H binding inhibition – biochemical, uHTS, fluorescence polarization, translation initiation inhibitor project, primary screen (AID 2012)
# Sequence of DNA dC->dU-editing enzyme APOBEC-3G (Q9HC16 whole entry): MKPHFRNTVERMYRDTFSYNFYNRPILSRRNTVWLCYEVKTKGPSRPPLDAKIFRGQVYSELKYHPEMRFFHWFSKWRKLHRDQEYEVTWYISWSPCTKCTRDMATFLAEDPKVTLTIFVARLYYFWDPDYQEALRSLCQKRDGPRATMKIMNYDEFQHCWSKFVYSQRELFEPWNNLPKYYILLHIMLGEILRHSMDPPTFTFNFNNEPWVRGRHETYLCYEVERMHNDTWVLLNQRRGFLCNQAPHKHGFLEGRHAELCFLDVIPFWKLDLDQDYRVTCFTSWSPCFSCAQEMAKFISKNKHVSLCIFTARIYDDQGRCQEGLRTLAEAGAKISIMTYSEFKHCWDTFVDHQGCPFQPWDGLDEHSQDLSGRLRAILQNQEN
# Sequence of DNA dC->dU-editing enzyme APOBEC-3A (P31941 whole entry): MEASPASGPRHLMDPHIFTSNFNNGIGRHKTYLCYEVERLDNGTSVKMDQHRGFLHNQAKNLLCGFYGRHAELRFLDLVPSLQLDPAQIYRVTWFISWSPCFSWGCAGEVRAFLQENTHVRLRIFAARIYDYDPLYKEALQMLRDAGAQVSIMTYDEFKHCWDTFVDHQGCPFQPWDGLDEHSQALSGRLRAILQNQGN
# Sequence of Large T antigen (P03070 whole entry): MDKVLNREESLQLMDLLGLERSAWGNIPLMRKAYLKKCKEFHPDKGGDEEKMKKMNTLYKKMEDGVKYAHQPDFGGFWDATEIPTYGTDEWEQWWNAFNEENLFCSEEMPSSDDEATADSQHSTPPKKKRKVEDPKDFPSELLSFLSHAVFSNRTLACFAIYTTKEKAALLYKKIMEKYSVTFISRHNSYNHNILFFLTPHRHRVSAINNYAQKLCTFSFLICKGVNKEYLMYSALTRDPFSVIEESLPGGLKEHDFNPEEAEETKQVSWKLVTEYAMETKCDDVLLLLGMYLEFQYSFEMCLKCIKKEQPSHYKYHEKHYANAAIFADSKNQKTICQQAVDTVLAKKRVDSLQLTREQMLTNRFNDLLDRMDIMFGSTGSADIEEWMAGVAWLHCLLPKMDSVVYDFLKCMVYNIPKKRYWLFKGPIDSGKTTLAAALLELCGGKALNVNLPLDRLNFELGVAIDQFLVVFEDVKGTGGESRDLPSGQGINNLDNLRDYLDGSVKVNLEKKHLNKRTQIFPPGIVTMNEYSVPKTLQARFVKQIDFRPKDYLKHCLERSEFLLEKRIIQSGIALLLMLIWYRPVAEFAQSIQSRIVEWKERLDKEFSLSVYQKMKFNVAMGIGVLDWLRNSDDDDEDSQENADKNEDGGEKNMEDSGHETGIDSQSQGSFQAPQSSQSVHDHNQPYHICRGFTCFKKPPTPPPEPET
# Sequence of Genome polyprotein (P29990 2492-3391 limits assumed): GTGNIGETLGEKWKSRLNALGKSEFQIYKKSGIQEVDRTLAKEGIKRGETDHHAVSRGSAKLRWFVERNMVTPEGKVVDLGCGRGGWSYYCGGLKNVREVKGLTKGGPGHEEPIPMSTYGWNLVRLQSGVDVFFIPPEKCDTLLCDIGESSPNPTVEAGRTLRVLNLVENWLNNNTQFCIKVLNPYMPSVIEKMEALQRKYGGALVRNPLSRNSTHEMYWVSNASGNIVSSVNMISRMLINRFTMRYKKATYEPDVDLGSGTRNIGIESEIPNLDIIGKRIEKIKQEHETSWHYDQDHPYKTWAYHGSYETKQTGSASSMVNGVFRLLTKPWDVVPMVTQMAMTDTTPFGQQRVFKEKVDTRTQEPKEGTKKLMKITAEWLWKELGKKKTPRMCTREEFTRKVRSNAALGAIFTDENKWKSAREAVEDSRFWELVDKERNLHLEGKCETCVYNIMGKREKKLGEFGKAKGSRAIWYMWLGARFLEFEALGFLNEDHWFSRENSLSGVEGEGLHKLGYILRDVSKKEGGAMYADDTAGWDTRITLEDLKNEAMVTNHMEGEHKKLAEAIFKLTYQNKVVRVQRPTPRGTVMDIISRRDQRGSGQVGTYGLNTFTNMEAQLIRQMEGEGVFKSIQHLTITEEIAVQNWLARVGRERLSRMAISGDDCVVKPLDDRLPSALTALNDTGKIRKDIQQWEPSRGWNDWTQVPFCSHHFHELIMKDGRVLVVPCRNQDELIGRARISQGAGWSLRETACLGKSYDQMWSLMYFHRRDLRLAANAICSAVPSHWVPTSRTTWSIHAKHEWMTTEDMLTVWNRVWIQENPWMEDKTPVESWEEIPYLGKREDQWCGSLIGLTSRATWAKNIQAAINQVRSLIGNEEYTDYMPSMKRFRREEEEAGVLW
# Sequence of Polyadenylate-binding protein 1 (P11940 whole entry): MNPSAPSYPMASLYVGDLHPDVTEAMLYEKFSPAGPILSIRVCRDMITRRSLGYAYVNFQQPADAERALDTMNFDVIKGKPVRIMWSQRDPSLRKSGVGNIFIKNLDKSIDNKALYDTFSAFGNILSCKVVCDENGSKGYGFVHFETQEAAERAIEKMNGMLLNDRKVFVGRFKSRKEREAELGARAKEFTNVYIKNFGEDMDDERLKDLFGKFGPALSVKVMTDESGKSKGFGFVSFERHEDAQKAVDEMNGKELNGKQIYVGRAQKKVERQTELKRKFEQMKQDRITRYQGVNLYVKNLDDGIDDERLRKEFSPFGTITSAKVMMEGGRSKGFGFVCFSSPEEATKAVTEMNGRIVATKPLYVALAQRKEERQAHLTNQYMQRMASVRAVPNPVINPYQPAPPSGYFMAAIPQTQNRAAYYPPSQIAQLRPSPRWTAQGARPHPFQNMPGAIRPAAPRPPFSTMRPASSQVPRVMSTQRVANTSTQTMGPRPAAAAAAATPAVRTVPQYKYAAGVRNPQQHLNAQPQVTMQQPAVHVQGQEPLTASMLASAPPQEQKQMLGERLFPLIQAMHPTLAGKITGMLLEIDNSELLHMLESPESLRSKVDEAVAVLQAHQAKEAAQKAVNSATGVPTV
structure (smiles),measurement,setting,value
CC(Oc1ccc(F)cc1)C(=O)Nc1cc(S(=O)(=O)N2CCOCC2)ccc1N1CCN(C)CC1 (configuration not stated),IC50,[1],8.29 µM (active)
same,IC50,[2],4.91 µM (active)
O=C(NCc1ccco1)c1ccc2c(c1)CCO2,IC50,[3],> 50 µM (inactive)
Fc1ccccc1Sc1ccccc1CNC1=NCCN1,IC50,[4],4.12 µM (active)
same,IC50,[1],2.77 µM (active)
same,EC50,[5],944 nM (active)
same,IC50,[2],1.35 µM (active)
CCCN(CCC)CCNC(=O)c1cc2c(=O)n(C)c3ccccc3c2n1C,AC50,[6],13.4 µM (active)
Cc1ccc2c(C)c(C(=O)Nc3nnc(C)s3)oc2c1,IC50,[3],> 50 µM (inactive)
CC(=O)c1c(COC(=O)c2cccnc2)nc2ccccc2[n+]1[O-],IC50,[1],2.09 µM (active)
same,IC50,[2],1.48 µM (active)
N#CCn1c(CCl)nc2ccccc2c1=O,IC50,[7],15.1 µM (active)
same,EC50,[8],7.2 µM (active)
same,AC50,[9],80.6 µM (active)
same,CC50,[10],14.9 µM (active)
same,CC50,[11],30.8 µM (active)
Cc1c(C)n(CCC#N)c2ccccc12,IC50,[3],> 50 µM (inactive)
CCOC(=O)C1(CCOc2ccccc2)CCN(Cc2cc(OC)ccc2OC)CC1,EC50,[12],3.76 µM (active)
O=C1ON=C(c2ccccc2)/C1=C/c1ccc(-c2ccccc2[N+](=O)[O-])o1,EC50,[13],42.5 µM (active)
same,IC50,[7],52.8 µM (active)
same,AC50,[14],23.2 µM (active)
same,IC50,[15],11.6 µM (active)
same,AC50,[16],7.21 µM (active)
same,EC50,[17],21.4 µM (active)
N=C1C[N+](CC23CC4CC(CC(C4)C2)C3)=NO1,IC50,[18],13.5 µM (active)
same,EC50,[12],1.06 µM (active)
CC/C(=N\NC(=S)NC(C)C)c1ccc(OC(F)F)cc1,IC50,[3],> 50 µM (inactive)
C[n+]1cccc(/C=N/NC(=O)CC23CC4CC(CC(C4)C2)C3)c1,IC50,[19],5.14 µM (active)
same,IC50,[1],3.28 µM (active)
same,IC50,[20],> 100 µM (inactive)
same,IC50,[2],3.04 µM (active)
COc1ccc2[nH]c3c(c2c1)CCNC3=O,AC50,[6],0.845 µM (active)
